For one data set, the target named is T1, D2 receptors (Homo sapiens, UniProt P14416).
T1 construct: expressed in transfected cells; host or cells: COS cells
In words: D2 receptor binding assay (3H-YM 09151-2 displacement). The method, then: (§1) Pellets of COS cells containing recombinantly produced D2 or D4 receptors from human are used for the assays. The sample is homogenized in 100 volumes (w/vol) of 0.05 M Tris HCl buffer at 4° C. and pH 7.4. The sample is then centrifuged at 30,000×g and resuspended and rehomogenized. The sample is then centrifuged as described above and the final tissue sample is frozen until use. The tissue is resuspended 1:20 (wt/vol) in 0.05 M Tris HCl buffer containing 100 mM NaCl.
(§2) Incubations are carried out at […]. and contain 0.4 ml of tissue sample, 0.5 nM 3H-YM 09151-2 and the compound of interest in a total incubation mixture of 1.0 ml. Nonspecific binding is defined as that binding found in the presence of 1 mM spiperone; without further additions, nonspecific binding is less than 20% of total binding. Representative binding characteristics for compounds of the invention for the D2 and D4 receptor subtypes are shown in Table 2 for cloned human dopamine receptors. Typically, the compounds of the invention have similar binding profiles.

A further data set addresses T2, D4 receptors (Homo sapiens, UniProt P21917).
T2 construct: expressed in transfected cells; host or cells: COS cells
T2 sequence (P21917 1-419): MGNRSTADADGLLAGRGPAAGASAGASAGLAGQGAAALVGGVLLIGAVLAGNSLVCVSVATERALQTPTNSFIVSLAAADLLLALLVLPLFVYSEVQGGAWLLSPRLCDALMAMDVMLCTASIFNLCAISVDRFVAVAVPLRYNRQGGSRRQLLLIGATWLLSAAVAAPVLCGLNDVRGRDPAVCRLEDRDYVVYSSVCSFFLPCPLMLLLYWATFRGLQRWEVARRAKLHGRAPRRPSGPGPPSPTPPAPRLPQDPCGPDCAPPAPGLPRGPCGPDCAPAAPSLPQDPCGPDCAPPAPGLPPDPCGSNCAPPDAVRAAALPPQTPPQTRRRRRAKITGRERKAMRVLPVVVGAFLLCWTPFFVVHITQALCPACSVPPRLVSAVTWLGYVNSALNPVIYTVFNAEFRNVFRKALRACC
Nature of the data set: D4 receptor binding assay (3H-YM 09151-2 displacement). The procedure: as §1, §2

Counter-ions that a name gives are not always drawn.

In general, melting point refers to the temperature, or range, at which the solid turns liquid. Usually Ki stands for the dissociation constant of the complex between target and ligand, obtained from inhibition or displacement.

T1 sequence (P14416 whole entry): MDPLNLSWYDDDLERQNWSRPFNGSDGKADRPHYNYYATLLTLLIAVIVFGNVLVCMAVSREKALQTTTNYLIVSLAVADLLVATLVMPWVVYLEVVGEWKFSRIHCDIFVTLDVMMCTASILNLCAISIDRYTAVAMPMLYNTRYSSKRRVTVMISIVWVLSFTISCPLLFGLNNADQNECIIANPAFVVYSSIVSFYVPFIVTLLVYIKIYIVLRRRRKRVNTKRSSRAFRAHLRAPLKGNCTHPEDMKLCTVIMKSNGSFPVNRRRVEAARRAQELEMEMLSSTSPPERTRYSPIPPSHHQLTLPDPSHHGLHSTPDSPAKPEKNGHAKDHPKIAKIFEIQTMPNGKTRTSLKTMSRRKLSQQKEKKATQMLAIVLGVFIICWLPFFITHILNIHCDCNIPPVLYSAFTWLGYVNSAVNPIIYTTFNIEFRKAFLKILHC

Turning to `Br.Br.Clc1ccc(CN2CCN(c3cccc(Cl)c3)CC2)cc1`, the melting point was 238 to 240 °C. Still for that read-out and setting: the value for `Clc1ccc(CN2CCN(c3ccccc3Cl)CC2)cc1.O=C(O)C(=O)O.O=C(O)C(=O)O` was 203 to 204 °C; that for `Clc1ccc(CN2CCN(c3ccc(Cl)c(Cl)c3)CC2)cc1` was 82 to 83 °C. Same read-out and setting: the value for `Cc1ccc(N2CCN(Cc3ccc(Cl)cc3)CC2)cc1.O=C(O)C(=O)O.O=C(O)C(=O)O` was 204 to 206 °C; that for `Cc1cccc(N2CCN(Cc3ccc(Cl)cc3)CC2)c1.O=C(O)C(=O)O.O=C(O)C(=O)O` was 233 to 235 °C; that for `Cc1ccccc1N1CCN(Cc2ccc(Cl)cc2)CC1.O=C(O)C(=O)O.O=C(O)C(=O)O` was 205 to 206 °C. `COc1ccccc1N1CCN(Cc2ccc(Cl)cc2)CC1.O=C(O)C(=O)O.O=C(O)C(=O)O` returned a melting point of 217 to 220 °C. Still for that read-out and setting: for `CCOc1ccc(N2CCN(Cc3ccc(Cl)cc3)CC2)cc1.Cl.Cl` the value was 235 to 237 °C; for `Br.Br.CCOc1ccccc1N1CCN(Cc2ccc(Cl)cc2)CC1`, 215 to 217 °C; for `Clc1ccc(CN2CCN(c3ccccc3)CC2)cc1.O=C(O)C(=O)O.O=C(O)C(=O)O`, 228 to 231 °C.

Regarding `Cc1ccc(CN2CCN(c3cccc(Cl)c3)CC2)cc1.O=C(O)C(=O)O.O=C(O)C(=O)O`, the melting point lay in the range of 199 to 200 °C.

In turn, `Cc1ccc(N2CCN(Cc3ccc(Cl)cc3)CC2)cc1C` (as salt: hydrochloride) [Compound 2, 1-(3,4-dimethylphenyl)-4-(4-chlorobenzyl)piperazine dihydrochloride] gave a melting point of 225 to 228 °C. Same read-out and setting: the value for `COc1ccc(N2CCN(Cc3ccc(Cl)cc3)CC2)cc1` (as salt: oxalate) [Compound 3, 1-(4-methoxyphenyl)-4-(4-chlorobenzyl)piperazine dioxalate] was 211 to 212 °C. `Clc1ccc(CN2CCN(c3ccc(Cl)cc3)CC2)cc1` [Compound 1, 1-(4-Chlorophenyl)-4-(4-chlorobenlzyl)piperazine Dihydrochloride]: the Ki on D2 receptors was above 1000 nM; at D4 receptors, 5 nM.

As for `Cc1ccc(N2CCN(Cc3ccc(Cl)cc3)CC2)cc1C` [Compound 2, 1-(3,4-dimethylphenyl)-4-(4-chlorobenzyl)piperazine dihydrochloride], the Ki at D2 receptors is above 600 nM; on D4 receptors it was 16 nM. The like results for `COc1ccc(N2CCN(Cc3ccc(Cl)cc3)CC2)cc1` [Compound 3, 1-(4-methoxyphenyl)-4-(4-chlorobenzyl)piperazine dioxalate] were, in that order, above 1000 nM and 5 nM.

Consider `Cc1ccc(CN2CCN(c3ccc(Cl)cc3)CC2)cc1` [Compound 4, 1-(4-chlorophenyl)-4-(4-methylbenzyl)piperazine dihydrobromide], for which the Ki is above 300 nM at D2 receptors and 15 nM on D4 receptors.

The record behind these values is US6656943B2, “1-phenyl-4-benzlpiperazines: dopamine receptor subtype specific ligands” (Neurogen Corporation, priority 1997, dated 2003).
